Experimental data as given in patent US20070197446A1, “MHC binding peptides and their uses” (ProImmune Limited, priority 2006, published 2007).

How the values were obtained:
Assay type in all cases: binding
HLA-B*3501 = HLA-B*3501 (Homo sapiens, UniProt P01889, A329T/A93T/A95T/C349S/D201E/D98Y/E176V/E187L/E204Q/E69T/I218V/K202T/L119I/Q94N/R155S/R180L/S121R/S35A/S48A/T118I/V127L/V306I/V36M/Y140S/Y91F)
HLA-A*0101 = HLA-A*0101 (Homo sapiens, UniProt P04439, A114D/A174V/A182V/D101N/D185E/E176A/E190D/L180R/Q94H/R68K/S129P/T187R/V100A/V91M/W191G)
HLA-A*0201 = HLA-A*0201 (Homo sapiens, UniProt P04439, D140Y/D185E/D98H/E176V/E277Q/G131W/G231S/I119V/I121R/I166T/I218V/L300P/L318F/N151K/N90K/P208A/P217A/Q86G/Q94H/R138H/R169H/T345S)
HLA-B*0801 = HLA-B*0801 (Homo sapiens, UniProt P01889, A93T/A95T/D138N/E176V/E187T/K202T/Q94N/R180D/S35A/V36M/Y33D/Y91F)
HLA-A*0301 = HLA-A*0301 (Homo sapiens, UniProt P04439)
HLA-B*0702 = HLA-B*0702 (Homo sapiens, UniProt P01889)

FINVPEWSY [SEQ ID NO: 10]
ELISA (Absorption-Pass/Fail Control) (HLA-B*3501): 0.57
ELISA (Absorption-Pass/Fail Control) (HLA-A*0101): 0.16

HPVGEADYFEY (T cell epitope) [SEQ ID NO: 8, reference compound]
ELISA (Absorption-Pass/Fail Control) (HLA-B*3501): 0.55
efficiency of binding to HLA-B*3501 (in words) (HLA-B*3501): high efficiency

LILRDCSVA [SEQ ID NO: 23]
ELISA (Absorption-Pass/Fail Control) (HLA-A*0201): 0.57
ELISA (Absorption-Pass/Fail Control) (HLA-B*0801): 0.07

SLVKSDQIC [SEQ ID NO: 16]
ELISA (Absorption-Pass/Fail Control) (HLA-A*0201): 0.09
ELISA (Absorption-Pass/Fail Control) (HLA-B*3501): −0.03

KLCDLDGVK [SEQ ID NO: 22]
ELISA (Absorption-Pass/Fail Control) (HLA-A*0201): 0.20
ELISA (Absorption-Pass/Fail Control) (HLA-A*0301): 1.16

LVKSDQICI [SEQ ID NO: 29]
ELISA (Absorption-Pass/Fail Control) (HLA-B*0702): −0.06
ELISA (Absorption-Pass/Fail Control) (HLA-B*3501): 0.04

LLFAIVSLV [SEQ ID NO: 12]
ELISA (Absorption-Pass/Fail Control) (HLA-A*0201): 1.06

IVSLVKSDQ [SEQ ID NO: 15]
ELISA (Absorption-Pass/Fail Control) (HLA-A*0201): 0.04

PMCDEFINV [SEQ ID NO: 24]
ELISA (Absorption-Pass/Fail Control) (HLA-A*0201): 0.98

IMEKNVTVT [SEQ ID NO: 19]
ELISA (Absorption-Pass/Fail Control) (HLA-A*0201): 0.02

LGNPMCDEF [SEQ ID NO: 43]
ELISA (Absorption-Pass/Fail Control) (HLA-B*3501): 0.35

ILEKKHNGK [SEQ ID NO: 28]
ELISA (Absorption-Pass/Fail Control) (HLA-B*0801): 0.95
ELISA (Absorption-Pass/Fail Control) (HLA-A*0301): −0.01

KPLILRDCS [SEQ ID NO: 35]
ELISA (Absorption-Pass/Fail Control) (HLA-B*0801): 0.10

VAGWLLGNP [SEQ ID NO: 37]
ELISA (Absorption-Pass/Fail Control) (HLA-B*0801): 0.04

WLLGNPMCD [SEQ ID NO: 38]
ELISA (Absorption-Pass/Fail Control) (HLA-B*0801): 0.03

TPRVTGGGAM (T cell epitope) [SEQ ID NO: 6, reference compound]
ELISA (Absorption-Pass/Fail Control) (HLA-B*0702): 0.88
efficiency of binding to HLA-B*0702 (in words) (HLA-B*0702): high efficiency

DILEKKHNG [SEQ ID NO: 34]
ELISA (Absorption-Pass/Fail Control) (HLA-B*0801): 0.53

YSEHPFTSQY (T cell epitope) [SEQ ID NO: 2, reference compound]
ELISA (Absorption-Pass/Fail Control) (HLA-A*0101): 0.58
efficiency of binding to HLA-A*0101 (in words) (HLA-A*0101): high efficiency

PLILRDCSV [SEQ ID NO: 36]
ELISA (Absorption-Pass/Fail Control) (HLA-B*0801): 0.65

DTIMEKNVT [SEQ ID NO: 32]
ELISA (Absorption-Pass/Fail Control) (HLA-B*0801): 0.08

HANNSTEQV [SEQ ID NO: 17]
ELISA (Absorption-Pass/Fail Control) (HLA-A*0201): 0.43
ELISA (Absorption-Pass/Fail Control) (HLA-B*3501): 0.43

KSDQICIGY [SEQ ID NO: 9]
ELISA (Absorption-Pass/Fail Control) (HLA-A*0101): 0.47
ELISA (Absorption-Pass/Fail Control) (HLA-A*0301): 0.05

GNPMCDEFI [SEQ ID NO: 39]
ELISA (Absorption-Pass/Fail Control) (HLA-B*0801): 0.04

LFAIVSLVK [SEQ ID NO: 40]
ELISA (Absorption-Pass/Fail Control) (HLA-B*3501): 0.10

ILRGSVAHK (T cell epitope) [SEQ ID NO: 5, reference compound]
ELISA (Absorption-Pass/Fail Control) (HLA-A*0301): 1.19
efficiency of binding to HLA-A*0301 (in words) (HLA-A*0301): high efficiency

ILRDCSVAG [SEQ ID NO: 30]
ELISA (Absorption-Pass/Fail Control) (HLA-B*0702): 0.03

VTHAQDILE [SEQ ID NO: 33]
ELISA (Absorption-Pass/Fail Control) (HLA-B*0801): 0.31

NVPEWSYIV [SEQ ID NO: 25]
ELISA (Absorption-Pass/Fail Control) (HLA-A*0201): 1.03

VSLVKSDQI [SEQ ID NO: 31]
ELISA (Absorption-Pass/Fail Control) (HLA-B*0801): 0.36

YIVEKANPV [SEQ ID NO: 26]
ELISA (Absorption-Pass/Fail Control) (HLA-B*0702): 0.11
ELISA (Absorption-Pass/Fail Control) (HLA-A*0201): 1.02
ELISA (Absorption-Pass/Fail Control) (HLA-B*0801): 0.32

AGWLLGNPM [SEQ ID NO: 42]
ELISA (Absorption-Pass/Fail Control) (HLA-B*3501): −0.06

AQDILEKKH [SEQ ID NO: 21]
ELISA (Absorption-Pass/Fail Control) (HLA-A*0201): 0.15

FAIVSLVKS [SEQ ID NO: 13]
ELISA (Absorption-Pass/Fail Control) (HLA-A*0201): 0.07

AIVSLVKSD [SEQ ID NO: 14]
ELISA (Absorption-Pass/Fail Control) (HLA-A*0201): 0.43

MEKNVTVTH [SEQ ID NO: 20]
ELISA (Absorption-Pass/Fail Control) (HLA-A*0201): −0.02

KKHNGKLCD [SEQ ID NO: 41]
ELISA (Absorption-Pass/Fail Control) (HLA-B*3501): −0.05

VLLFAIVSL [SEQ ID NO: 11]
ELISA (Absorption-Pass/Fail Control) (HLA-A*0201): 0.47

TIMEKNVTV [SEQ ID NO: 18]
ELISA (Absorption-Pass/Fail Control) (HLA-B*0702): 0.00
ELISA (Absorption-Pass/Fail Control) (HLA-A*0201): 0.99
ELISA (Absorption-Pass/Fail Control) (HLA-B*0801): 0.80

NVTVTHAQD [SEQ ID NO: 27]
ELISA (Absorption-Pass/Fail Control) (HLA-B*0801): 0.08
ELISA (Absorption-Pass/Fail Control) (HLA-A*0301): −0.04
